Experimental data from patent publication US20140004458A1, “MAGENTA TONER” (CANON KABUSHIKI KAISHA, priority 2011, published 2014).

How the values were obtained:
[1] = evaluation of lightness and saturation of image sample (L*a*b* chromaticity); format: physicochemical; settings: toner using the compound, in words
Description: Image samples were formed using the resulting toners. The lightness and saturation of the samples were evaluated. To compare image characteristics, an image output test was made using a modified apparatus of LBP-5300 (manufactured by CANON KABUSHIKI KAISHA) as an image forming apparatus. The modification was performed in such a manner that a developing blade in a process cartridge was replaced with a stainless blade having a thickness of […] and that a blade bias of −200 V against a developing bias that was applied to a developing roller serving as a toner support was applicable.
With respect to each of the resulting image samples, chromaticity (L*, a*, b*) in the L*a*b* color system was measured with a reflection densitometer (Model: SpectroLino, manufactured by GretagMacbeth).
In the L*a*b* space, color coordinates indicating the magenta color of the Japan Color 2001 are defined as X (L1, a1, b1). In the L*a*b* space, coordinates of an intersection point of a plane including the L* axis and the coordinates X and the a*b* curve of the image sample obtained by the chromaticity measurement are defined as Y (L2, a2, b2). The a*b* curve is obtained by forming a plurality of image samples having different toner adhesion amounts. The difference Δc (=c2−c1) between a c* value [=c2={(a2^2+b2^2)}^1/2] at the intersection point Y and a c* value [=c1={(a1^2+b1^2)}^1/2] at the coordinates X was calculated. The difference ΔL (=L2−L1) between an L* value (=L2) at the intersection point Y and an L* value (=L1) at the coordinates X was calculated.
The lightness and saturation were evaluated on the basis of the following evaluation criteria.
A: Δc is 0 or more, and ΔL is 0 or more; B: Δc is −5 or more, and ΔL is −5 or more, excluding the case of Class A described above; and C: Δc is less than −5, or ΔL is less than −5.
In the case where Δc was −5 or more and ΔL was −5 or more, the sample was evaluated to have satisfactory lightness and saturation.

[2] = evaluation of lightfastness of image sample (Atlas Weather-Ometer Ci4000); format: physicochemical; settings: toner using the compound, in words; for lightfastness: satisfactory = ΔE less than 10 after 60 hours
Description: The image samples were placed in Atlas Weather-Ometer Ci4000 (from Toyo Seiki Seisaku-sho, Ltd.) and exposed for 60 hours. In this case, measurement conditions were as follows: black panel temperature: 50° C., chamber temperature: 40° C., relative humidity: 70%, and irradiance: 0.39 W/m^2 (340 nm).
The chromaticity (L*, a*, b*) in the L*a*b* color system was measured with the reflection densitometer (Model: SpectroLino, manufactured by GretagMacbeth) before and after the exposure test. The color difference (ΔE) was calculated from the following expression on the basis of measurements of the color characteristics:
Color difference(ΔE)={(a*before test−a*after test)^2+(b*before test−b*after test)^2+(L*before test−L*after test)^2}^1/2
In the case where ΔE was less than 10 after 60 hours, the sample was evaluated to have satisfactory lightfastness.

Row | SMILES | lightness [1] | balance between the saturation and lightfastness [2] | lightness and saturation [1] | lightfastness [2]
1 | CCN(CC)c1ccc2c(c1)Oc1cc(N(CC)CC)ccc1C21OC(=O)c2ccccc21 [(1)] | satisfactory | not provided |  | 
2 | Cc1ccc(/N=N/c2c(O)c(C(=O)O)cc3ccccc23)c(S(=O)(=O)O)c1 [(3)] |  |  | not sufficient | satisfactory
3 | Cc1ccc(Nc2ccc3c4c(cc(=O)n3C)-c3ccccc3C(=O)c24)cc1 [(2)] |  |  | not sufficient | satisfactory
